Molecular target: human APJ receptor (Homo sapiens (Human), UniProt P35414)
Test: Intracellular cAMP accumulation assay (APJ hcAMP, HTRF)
Type: cell-based
Settings: HEK293 cells stably expressing human APJ receptor; inhibition of forskolin-mediated cAMP production; read-out: hAPJ cAMP EC50 (nM) Potency range
Method: Intracellular cAMP Accumulation Assay
HEK293 cells stably expressing human APJ receptor were used to assess the activity of compounds. Cultured cells were detached and resuspended in the cAMP Homogeneous Time-Resolved Fluorescence (HTRF) assay buffer (Cisbio cat; #62AM4PEJ). The assay was performed in 384-well assay plates (Perkin-Elmer; cat #6008289) according to assay protocol provided by the manufacturer. Serial dilutions of a compound together with assay buffer containing […] and 2 μM forskolin were added to each well containing 5,000 cells and incubated for 30 minutes at room temperature. Subsequently, cAMP D2 reagent was added in the lysis buffer followed by the EuK antibody (Cisbio; cat #62AM4PEJ) and incubated for 60 min. The fluorescence emission ratio was measured using fluorometer. The intracellular cAMP concentrations (compound-stimulated inhibition of forskolin-mediated cAMP production) were calculated by extrapolation from a standard curve using known cAMP concentrations. The EC50 values were obtained by fitting the data to a sigmoidal concentration-response curve with variable slope.

human APJ receptor, sequence (P35414 whole entry): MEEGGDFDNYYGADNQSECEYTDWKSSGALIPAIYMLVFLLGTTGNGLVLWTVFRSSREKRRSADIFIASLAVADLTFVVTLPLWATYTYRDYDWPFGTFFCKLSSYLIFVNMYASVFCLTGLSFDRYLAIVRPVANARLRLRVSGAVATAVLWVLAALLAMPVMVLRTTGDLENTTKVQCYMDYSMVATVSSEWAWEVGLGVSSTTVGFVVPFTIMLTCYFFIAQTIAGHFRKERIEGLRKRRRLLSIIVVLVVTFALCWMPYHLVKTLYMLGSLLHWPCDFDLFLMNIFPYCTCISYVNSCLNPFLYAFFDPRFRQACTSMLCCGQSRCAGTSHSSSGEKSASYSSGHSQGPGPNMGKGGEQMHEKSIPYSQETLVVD

SMILES | EC50 [nM]
COc1cccc(OC)c1-c1c(C2CCCC2)[nH]c(=O)c(-c2nnc(Cc3ccc(Cl)cc3)o2)c1O [Example 239, 3-{5-[(4-chlorophenyl)methyl]-1,3,4-oxadiazol-2-yl}-6-cyclopentyl-5-(2,6-dimethoxyphenyl) pyridine-2,4-diol] | 0.01 to 10
CCCCc1nc(O)c(-c2nnc(CC(=O)NCc3ccncc3)o2)c(O)c1-c1c(OC)cccc1OC [Example 268, 2-{5-[6-butyl-5-(2,6-dimethoxyphenyl)-2,4-dihydroxy-pyridin-3-yl]-1,3,4-oxadiazol-2-yl}-N-[(pyridin-4-yl)methyl] acetamide] | 0.01 to 10
C#CCNC(=O)Cc1nnc(-c2c(O)nc(CCCC)c(-c3c(OC)cccc3OC)c2O)o1 [Example 262, 2-{5-[6-butyl-5-(2,6-dimethoxyphenyl)-2,4-dihydroxy-pyridin-3-yl]-1,3,4-oxadiazol-2-yl}-N-(prop-2-yn-1-yl)acetamide] | 0.01 to 10

Same assay, conditions: HEK293 cells stably expressing human APJ receptor; inhibition of forskolin-mediated cAMP production; read-out: hAPJ cAMP EC50 Potency range

SMILES | EC50 [nM]
CCCCc1nc(O)c(-c2nnc(CC(=O)N3CC(F)(F)C3)o2)c(O)c1-c1c(OC)cccc1OC [Example 200, 2-{5-[6-butyl-5-(2,6-dimethoxyphenyl)-2,4-dihydroxypyridin-3-yl]-1,3,4-oxadiazol-2-yl}-1-(3,3-difluoroazetidin-1-yl)ethan-1-one] | 0.01 to 10
CCCCc1nc(O)c(-c2nnc(C(C)c3ccc(Cl)cc3)o2)c(O)c1-c1c(OC)cccc1OC (centres unmarked) [Example 40, 6-butyl-3-{5-[1-(4-chlorophenyl)ethyl]-1,3,4-oxadiazol-2-yl}-5-(2,6-dimethoxyphenyl) pyridine-2,4-diol] | 0.01 to 10
CCCCc1nc(O)c(-c2nnc(Cc3noc4ccccc34)o2)c(O)c1-c1c(OC)ccc(F)c1OC (single isomer, unassigned; isomer 2) [Example 221, 3-[5-(1,2-benzoxazol-3-ylmethyl)-1,3,4-oxadiazol-2-yl]-6-butyl-5-(3-fluoro-2,6-dimethoxyphenyl) pyridine-2,4-diol (isomer 2)] | 0.01 to 10
CCCCc1nc(O)c(-c2nnc(C3NCCc4ccccc43)o2)c(O)c1-c1c(OC)cccc1OC (centres unmarked) [Example 61, 6-butyl-5-(2,6-dimethoxyphenyl)-3-[5-(1,2,3,4-tetra-hydroisoquinolin-1-yl)-1,3,4-oxadiazol-2-yl]pyridine-2,4-diol] | 0.01 to 10
CCOCc1nc(O)c(-c2nnc(Cn3nnc4ccccc43)o2)c(O)c1-c1c(OC)cccc1OC [Example 133, 3-[5-(1H-1,2,3-benzotriazol-1-ylmethyl)-1,3,4-oxadiazol-2-yl]-5-(2,6-dimethoxyphenyl)-6-(ethoxymethyl) pyridine-2,4-diol] | 0.01 to 10
CCCCc1nc(O)c(-c2nnc(CC(=O)N3CCCC3)o2)c(O)c1-c1c(OC)cccc1OC [Example 194, 2-{5-[6-butyl-5-(2,6-dimethoxyphenyl)-2,4-dihydroxypyridin-3-yl]-1,3,4-oxadiazol-2-yl}-1-(pyrrolidin-1-yl)ethan-1-one] | 0.01 to 10
CCCCc1nc(O)c(-c2nnc(CCc3nc(-c4ccccc4)no3)o2)c(O)c1-c1c(OC)cccc1OC [Example 77, 6-butyl-5-(2,6-dimethoxyphenyl)-3-{5-[2-(3-phenyl-1,2,4-oxadiazol-5-yl)ethyl]-1,3,4-oxadiazol-2-yl}pyridine-2,4-diol] | 10 to 100
CCCCc1nc(O)c(-c2nnc(CC(=O)NCc3ccccc3)o2)c(O)c1-c1c(OC)cccc1OC [Example 186, N-benzyl-2-{5-[6-butyl-5-(2,6-dimethoxyphenyl)-2,4-dihydroxypyridin-3-yl]-1,3,4-oxadiazol-2-yl}acetamide] | 0.01 to 10
CCCCc1nc(O)c(-c2nnc(CC(=O)NCC(F)F)o2)c(O)c1-c1c(OC)cccc1OC [Example 191, 2-{5-[6-butyl-5-(2,6-dimethoxyphenyl)-2,4-dihydroxypyridin-3-yl]-1,3,4-oxadiazol-2-yl}-N-(2,2-difluoroethyl) acetamide] | 0.01 to 10
CCOCc1nc(O)c(-c2nnc(CNC(=O)c3ccccc3)o2)c(O)c1-c1c(OC)cccc1OC [Example 173, N-({5-[5-(2,6-dimethoxyphenyl)-6-(ethoxymethyl)-2,4-dihydroxypyridin-3-yl]-1,3,4-oxadiazol-2-yl}methyl) benzamide] | 0.01 to 10
CCOCc1nc(O)c(-c2nnc(Cc3ccc(Cl)cn3)o2)c(O)c1-c1c(OC)cccc1OC [Example 127, 3-{5-[(5-chloropyridin-2-yl)methyl]-1,3,4-oxadiazol-2-yl}-5-(2,6-dimethoxyphenyl)-6-(ethoxymethyl) pyridine-2,4-diol] | 0.01 to 10
CCCCc1nc(O)c(-c2nnc(Cc3nnc(-c4ccccc4Cl)o3)o2)c(O)c1-c1c(OC)cccc1OC [Example 208, 6-butyl-3-(5-{[5-(2-chlorophenyl)-1,3,4-oxadiazol-2-yl]methyl}-1,3,4-oxadiazol-2-yl)-5-(2,6-dimethoxyphenyl) pyridine-2,4-diol] | 0.01 to 10
CCOCc1nc(O)c(-c2nnc(Cc3noc(-c4ccccn4)n3)o2)c(O)c1-c1c(OC)cccc1OC [Example 107, 5-(2,6-dimethoxyphenyl)-6-(ethoxymethyl)-3-(5-{[5-(pyridin-2-yl)-1,2,4-oxadiazol-3-yl]methyl}-1,3,4-oxadiazol-2-yl)pyridine-2,4-diol] | 0.01 to 10
CCOCc1nc(O)c(-c2nnc(Cc3csc(C)n3)o2)c(O)c1-c1c(OC)cccc1OC [Example 106, 5-(2,6-dimethoxyphenyl)-6-(ethoxymethyl)-3-{5-[(2-methyl-1,3-thiazol-4-yl)methyl]-1,3,4-oxadiazol-2-yl}pyridine-2,4-diol] | 0.01 to 10
CCCCc1nc(O)c(-c2nnc(Cc3ccc(F)c(OC)c3)o2)c(O)c1-c1c(OC)cccc1OC [Example 48, 6-butyl-5-(2,6-dimethoxyphenyl)-3-{5-[(4-fluoro-3-methoxyphenyl)methyl]-1,3,4-oxadiazol-2-yl}pyridine-2,4-diol] | 0.01 to 10
CCCCc1[nH]c(=O)c(-c2nnc(Cc3csc(C)n3)o2)c(O)c1-c1cccc(C2CC2)c1 [Example 150, 6-butyl-5-(3-cyclopropylphenyl)-4-hydroxy-3-{5-[(2-methyl-1,3-thiazol-4-yl)methyl]-1,3,4-oxadiazol-2-yl}-1,2-dihydropyridin-2-one] | 0.01 to 10
CCOCc1[nH]c(=O)c(-c2nnc(Cc3ccc(Cl)nc3)o2)c(O)c1-c1c(OC)cccc1OC [Example 110, 3-{5-[(6-chloropyridin-3-yl)methyl]-1,3,4-oxadiazol-2-yl}-5-(2,6-dimethoxyphenyl)-6-(ethoxymethyl) pyridine-2,4-diol] | 0.01 to 10
CCCCc1nc(O)c(-c2nnc(Cc3noc4ccccc34)o2)c(O)c1-c1c(OC)cc(C)cc1OC [Example 26, 3-[5-(1,2-benzoxazol-3-ylmethyl)-1,3,4-oxadiazol-2-yl]-6-butyl-5-(2,6-dimethoxy-4-methylphenyl) pyridine-2,4-diol] | 0.01 to 10
CCCCc1nc(O)c(-c2nnc(Cn3ccnc3)o2)c(O)c1-c1c(OC)cccc1OC [Example 115, 6-butyl-5-(2,6-dimethoxyphenyl)-3-[5-(1H-imidazol-1-ylmethyl)-1,3,4-oxadiazol-2-yl]pyridine-2,4-diol] | 10 to 100

Same assay, conditions: hAPJ cAMP EC50 Potency range (nM), HEK293 cells stably expressing human APJ receptor; inhibition of forskolin-mediated cAMP production

SMILES | EC50 [nM]
CCCCc1nc(O)c(-c2nnc(CN3CCOC3=O)o2)c(O)c1-c1c(OC)cccc1OC [Example 116, 3-({5-[6-butyl-5-(2,6-dimethoxyphenyl)-2,4-dihydroxypyridin-3-yl]-1,3,4-oxadiazol-2-yl}methyl)-1,3-oxazolidin-2-one] | 0.01 to 10

Source: patent US10336739B2, “4-hydroxy-3-(heteroaryl)pyridine-2-one APJ agonists” (BRISTOL-MYERS SQUIBB COMPANY, priority 2015, dated 2019)
